Laboratory results taken from patent US9657073B2, “Inhibitors of Bcl-2” (Case Western Reserve University, priority 2010, dated 2017).
Blank lines part the entries; values can stand above or below the compound they belong to. Where no end group is shown, it is not given here.

Columns and labels:
primary CLL cells [1] = test: Single cell digital imaging of intracellular Ca2+ (Fura-2); format: cell-based, human
From the text: (§1) Lymphocytes were freshly separated from heparinized peripheral blood obtained from normal adult volunteers or adult patients with chronic lymphocytic leukemia (CLL) meeting standard diagnostic guidelines. Patients had either never received treatment or had received treatment over two years prior to obtaining samples. We conformed to all guidelines and regulations in accordance with Internal Review Board protocols ICC2902/11-02-28 (Case Western Reserve University Cancer Center/University Hospitals of Cleveland Ireland Cancer Center). Cells were separated by centrifugation through Ficoll-Hypaque and suspended in RPMI medium supplemented with 10% fetal bovine serum, L-glutamine (2 mM), and nonessential amino acids (100 μM) at a density of 2 million cells/ml. Normal CD19+ B cells were pooled from healthy individuals between 26 and 32 years of age, in accordance with IRB-approval (as above). Mononuclear cells were separated by Ficoll-Hypaque centrifugation, and further isolation of B and T cells was achieved by magnetic separation using CD19 microbeads (Miltenyi Biotec, Bergisch Gladbach, Germany).
(§2) Methods of Ca^2+ imaging, described in detail previously, were employed here with only minor modification. Briefly, cells adhered to poly-L-lysine-coated coverslips (35-mm coverslip dishes, MatTek Corp., Ashland, Mass.) were loaded with 1 μM Fura-2 AM for 45 min at 25° C. in extracellular buffer (ECB) (130 mM NaCl, 5 mM KCl, 1.5 mM CaCl2, 1 mM MgCl2, 25 mM Hepes, pH 7.5, 1 mg/ml BSA, and 5 mM glucose). The buffer was replaced with fresh ECB and the incubation continued for […] at 25° C. to permit de-esterification. Culture dishes were mounted on the non-heated stage of an inverted microscope (Olympus CKX41) equipped with a 20× Fluor objective. Excitation light was alternated between 340 and 380 nm by a filter wheel (Sutter Instrument Co.), with 0.8 sec and 0.2 sec exposure times respectively, and emitted light was filtered at >510 nm and collected with an intensified charge-coupled device camera (Cooke 12 bit VGA). The video signal was digitized using InCyt Im2 software (Intracellular Imaging) and subsequently processed using Microsoft Excel. To determine Rmin cells were perfused with ECB deficient in Ca^2+ and supplemented with 4 mM EGTA and 10 μM ionomycin. Rmax was obtained by perfusing cells with ECB supplemented with 4 mM CaCl2 and 10 μM ionomycin. […] In most experiments peptides were fused with the cell penetrating peptide of HIV TAT to facilitate uptake by cells. In some experiments peptides, without linkage to TAT, were delivered into cells using Chariot reagent (Active Motif) as previously described. Xestospongin C (Enzo Life Sciences International) and U73122 (Sigma), both dissolved in DMSO, were added to cells […] prior to Ca^2+ measurements.

primary CLL cells [2] = test: Apoptosis and cell death assays (trypan blue, propidium iodide, Hoechst nuclear morphology, Annexin V); format: cell-based, human
From the text: as §1, with “Patients had either never received treatment or had received treatment over two years prior to obtaining samples.” left out
Apoptosis was quantified according to apoptotic nuclear morphology and by detection of phosphatidylserine exposure on the plasma membrane. […] Images were obtained using a chargecoupled device camera (Hamamatsu Photonics, Shizuoka, Japan) and digitally converted by Simple PCI software (Hamamatsu Photonics). Membrane translocation of phosphatidylserine was detected by Annexin V staining. Annexin V-positive cells were assessed by flow cytometry using an ARIA flow cytometer (Beckman Coulter, Pasadena, Calif., USA). All flow cytometry data were analyzed using FlowJo 8.8.4 for Macintosh (Treestar, Ashland, Oreg., USA). Dead cells were identified according to their inability to exclude trypan blue dye or propidium iodide. Trypan blue dye uptake into cells was detected by light microscopy using a 40× objective and quantified by counting up to 400 cells. Propidium iodide uptake was quantified by flow cytometry in association with the Annexin V measurement described above.

Jurkat cells = test: Single cell digital imaging of intracellular Ca2+ (Fura-2); format: cell-based, human; conditions: for effect on percentage of cells displaying peptide-induced Ca2+ oscillations: xestospongin C 10 μM, U73122 0.25 μM, peptide 10 μM, 90 min, FIG. 8A
Description: (§3) WEHI7.2 cells were cultured in DMEM supplemented with 10% fetal calf serum, L-glutamine (2 mM), and nonessential amino acids (100 μM). Transfections of WEHI7.2 cells with expression vectors encoding wild type Bcl-2 and Bcl-2RS/GG were described previously. Jurkat cells and RS11846 cells were cultured in RPMI medium supplemented with 10% fetal bovine serum, L-glutamine (2 mM), and nonessential amino acids (100 μM). Cells were maintained in 5% carbon dioxide at high humidity.
as §2

Bfl-1 = biological target: T1, Bfl-1 (Homo sapiens, UniProt Q16548); conditions: read-out: inhibitory concentration of 50% (IC50) for displacing BH3 peptides; cited from earlier work
T1 sequence (Q16548 1-175): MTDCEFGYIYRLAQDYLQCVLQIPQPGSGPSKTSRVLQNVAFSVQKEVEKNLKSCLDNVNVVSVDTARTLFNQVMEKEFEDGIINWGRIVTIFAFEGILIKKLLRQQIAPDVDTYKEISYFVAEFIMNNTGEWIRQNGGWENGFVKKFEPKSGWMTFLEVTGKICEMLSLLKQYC

Bcl-XL = Bcl-XL (Homo sapiens, UniProt Q07817); conditions: read-out: inhibitory concentration of 50% (IC50) for displacing BH3 peptides; cited from earlier work
Chain of Bcl-XL (Q07817 whole entry, species assumed): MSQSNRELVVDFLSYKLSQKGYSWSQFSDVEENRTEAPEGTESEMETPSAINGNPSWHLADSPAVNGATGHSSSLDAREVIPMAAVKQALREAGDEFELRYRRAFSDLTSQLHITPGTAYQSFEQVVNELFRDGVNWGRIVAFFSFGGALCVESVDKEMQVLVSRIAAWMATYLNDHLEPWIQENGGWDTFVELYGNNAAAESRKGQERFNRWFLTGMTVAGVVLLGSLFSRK

Bcl-B = biological target: T2, Bcl-B (Homo sapiens, UniProt Q9HD36); conditions: read-out: inhibitory concentration of 50% (IC50) for displacing BH3 peptides; cited from earlier work
T2 sequence (Q9HD36 1-204): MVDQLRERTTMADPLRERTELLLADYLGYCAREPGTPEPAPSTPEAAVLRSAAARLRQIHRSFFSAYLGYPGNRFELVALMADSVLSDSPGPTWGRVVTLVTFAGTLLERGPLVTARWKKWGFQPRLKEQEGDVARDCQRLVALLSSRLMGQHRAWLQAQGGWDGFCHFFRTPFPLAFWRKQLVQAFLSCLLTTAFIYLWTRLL

[3] = system: Bcl-2-positive WEHI7.2 cells; test: Single cell digital imaging of intracellular Ca2+ (Fura-2); format: cell-based, murine
Description: as §3
Methods of Ca^2+ imaging, described in detail previously, were employed here with only minor modification. Briefly, cells adhered to poly-L-lysine-coated coverslips (35-mm coverslip dishes, MatTek Corp., Ashland, Mass.) were loaded with 1 μM Fura-2 AM for 45 min at 25° C. in extracellular buffer (ECB) (130 mM NaCl, 5 mM KCl, 1.5 mM CaCl2, 1 mM MgCl2, 25 mM Hepes, pH 7.5, 1 mg/ml BSA, and 5 mM glucose). The buffer was replaced with fresh ECB and the incubation continued for […] at 25° C. to permit de-esterification. Culture dishes were mounted on the non-heated stage of an inverted microscope (Olympus CKX41) equipped with a 20× Fluor objective. […]

[4] = system: Bcl-2-positive WEHI7.2 cells; conditions: data not shown
Bcl-2 = Bcl-2 (Homo sapiens, UniProt P10415); test: Biotin-streptavidin pulldown assay; format: binding; conditions: 200 μM biotin-peptide, lysate of WEHI7.2 cells overexpressing wild type Bcl-2
Chain of Bcl-2 (P10415 whole entry, species assumed): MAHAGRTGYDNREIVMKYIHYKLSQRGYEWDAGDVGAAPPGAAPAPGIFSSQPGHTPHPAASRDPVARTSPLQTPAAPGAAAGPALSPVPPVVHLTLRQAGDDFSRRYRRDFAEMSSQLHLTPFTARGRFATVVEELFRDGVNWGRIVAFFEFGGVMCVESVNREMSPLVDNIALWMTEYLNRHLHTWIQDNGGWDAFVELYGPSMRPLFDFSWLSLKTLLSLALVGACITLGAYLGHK
Description: WEHI7.2 cells overexpressing wild type Bcl-2 were washed twice with PBS and incubated on ice for 30 min in 400 ul CHAPS lysis buffer (50 mM Tris-HCL pH 7.5, 100 mM NaCL, 2 mM EDTA, 1% CHAPS, 50 mM NaF, 1 mM Na3VO4, protease inhibitor cocktail, PhosSTOP). Cell lysates were centrifuged for 15 min at 20,000 g at 4 C and the supernatant (protein concentration 5 mg/ml) was continuously rotated with 200 μM biotin-Scr or biotin-IDPDD/AA, or without peptide, at 4 C for 16 hr. Streptavidin Sepharose beads ([…]) (Pierce Pull-Down Biotinylated Protein:Protein Interaction Kit, Thermo, Cat #21115) were washed three times with tris buffered saline (25 mM Tris.HCL, 0.15M NaCl, pH 7) and then added to 400 μl cell lysate, followed by rotation for 2 hours at 4 C. After this, the beads were washed four times with tris buffered saline, centrifuging for 30-60 second each time. The beads were then incubated for 3-5 min at room temperature with 50 μl elution buffer provided with the Pierce pulldown kit (above) and centrifuged at 1,250×g for 30-60 seconds. The supernatant was boiled in SDS-PAGE sample buffer for 5 min and western blotting for Bcl-2 was performed as described above.

[5] = system: IP3R-mediated Ca2+ release inhibited by BH4-Bcl-2; test: Unidirectional 45Ca2+-flux assay in permeabilized MEF cells; format: cell-based; conditions: 40 μM IDPDD/AA, 40 μM BH4-Bcl-2 peptide, 3 μM IP3, FIG. 7
Description: Twelve-well clusters containing MEF cells were fixed on a thermostated plate at 30° C. on a mechanical shaker. The culture medium was aspirated, and the cells were permeabilized by incubating them for 10 min in a solution containing 120 mM KCl, 30 mM imidazole-HCl (pH 6.8), 2 mM MgCl2, 1 mM ATP, 1 mM EGTA and 20 μg/ml saponin. The non-mitochondrial Ca^2+ stores were then loaded for 45 min in 120 mM KCl, 30 mM imidazole-HCl (pH 6.8), 5 mM MgCl2, 5 mM ATP, 0.44 mM EGTA, 10 mM NaN3 and 150 nM free ^45Ca^2+ (28 μCi/ml). Then, 1 ml of efflux medium containing 120 mM KCl, 30 mM imidazole-HCl (pH 6.8) and 1 mM EGTA was added and replaced every 2 min IP3 (3 μM) was added for 2 min after 10 min of efflux. BH4-Bcl2 peptide (40 μM), in the presence or not of IDPDD/AA peptide (40 μM), was added from 4 min before IP3 to 2 min after IP3. At the end of the experiment, all 45Ca^2+ remaining in the stores was released by incubation with 1 ml of a 2% (w/v) sodium dodecyl sulfate solution for 30 min Ca^2+ release was plotted as fractional loss (%/2 min) as a function of time, as previously described.

Bcl-2-IP3R interaction = biological target: T3, Bcl-2-IP3R interaction (Homo sapiens, UniProt P10415); test: Co-immunoprecipitation assay; format: binding; conditions: 200 μM peptide, lysate of WEHI7.2 cells overexpressing wild type Bcl-2
T3 construct: expressed in transfected cells; host or cells: WEHI7.2 (murine T cell lymphoma); IP3R endogenous
T3 sequence (P10415 whole entry): as the sequence (P10415 whole entry, species assumed) above
Description: One hundred million WEHI7.2 cells overexpressing wild type Bcl-2 were washed twice with PBS and then lysed on ice for 30 min in 1 ml CHAPS buffer. The supernatant was prepared by centrifugation for 15 min at 20,000 g at 4° C. The supernatant (1 ml) was mixed with 100 μl 50% protein G in Tris 50 mM pH 7.5 buffer and rotated at 4 C for 2 hrs. After removing the beads, the supernatant was incubated with 200 μM peptide (Scr or IDPDD/AA, or without peptide addition, for 2 hrs at 4° C. Then hamster anti-human Bcl-2 antibody was added (final dilution 1:250) and the supernatant was rotated for 16 hrs at 4 C, followed by rotation in the presence of 50 μl protein G (50% beads) for 2 hours at 4 C. The beads were washed six times with CHAPS buffer and boiled for 5 min in SDS sample buffer followed by resolution of proteins by SDS-PAGE and analysis by western blotting for the IP3R using anti-IP3R antibody (BD Biosciences (Cat #610313) at 1:2,000 dilution and for Bcl-2 as described above.

Compound: C1CCC[C@H]2CCCN3CC[C@@H](CCCCCC[C@@H]4CCCN5CC[C@@H](CC1)O[C@@H]45)O[C@@H]23 [xestospongin C, reference compound]
effect on Ca2+ responses to TAT-IDP and TAT-IDPDD/AA (primary CLL cells [1]; CLL cells): inhibited
effect on apoptosis induction by TAT-IDPDD/AA (primary CLL cells [2]; CLL cells): inhibited
effect on percentage of cells displaying peptide-induced Ca2+ oscillations (Jurkat cells): reduced

Compound: COc1ccc2c(c1)CC[C@@H]1[C@@H]2CC[C@]2(C)[C@@H](NCCCCCCN3C(=O)C=CC3=O)CC[C@@H]12 [U73122]
effect on percentage of cells displaying peptide-induced Ca2+ oscillations (Jurkat cells): reduced

Compound: Cc1cc2c(C(C)C)c(O)c(O)c(C=O)c2c(O)c1-c1c(C)cc2c(C(C)C)c(O)c(O)c(C=O)c2c1O [Gossypol, 1,6,7,1′,6′,7′-Hexahydroxy-5,5′-diisopropyl-3,3′-dimethyl-[2,2′]binaphthalenyl-8,8′-dicarbaldehyde]
IC50 (Bfl-1): ~500 nM
IC50 (Bcl-XL): ~500 nM
IC50 (Bcl-B): ~500 nM

Compound: IDP: synthetic IP3R-derived peptide, 20 amino acid sequence within the Bcl-2-binding site on the IP3R (RKKRRQRRRGGNVYTEIKCNSLLPLDDIVRV; listed as Homo sapiens)
number of Ca2+ spikes observed per cell ([3]; 2 μM peptide, 70 min recordings, FIG. 2): very infrequent
induction of Ca2+ elevations ([3]; peptide introduced by Chariot peptide uptake reagent, data not shown): induced Ca^2+ elevations

Compound: RKKRRQRRRGGNVYTEIKCNSLLPLDDIVRV [TAT-IDP]
cell viability following treatment [4]: not lost

Compound: pepstatin A
effect of pretreatment on amplitude of peptide-induced Ca2+ elevations (Jurkat cells; TAT-IDP in Jurkat cells): significant enhancement
effect of pretreatment on percentage of cells displaying peptide-induced calcium elevations (Jurkat cells; TAT-IDP in Jurkat cells): slight, but not significant, increase

Compound: CN(C)CCC(CSc1ccccc1)Nc1ccc(S(=O)(=O)NC(=O)c2ccc(N3CCN(Cc4ccccc4-c4ccc(Cl)cc4)CC3)cc2)cc1[N+](=O)[O-] (centres unmarked) [ABT-737, N-[4-[4-(4′-Chloro-biphenyl-2-ylmethyl)-piperazin-1-yl]-benzoyl)-4-(3-dimethylamino-1-phenylsulfanylmethyl-propylamino)-3-nitro-benzenesulfonamide, reference compound]
induction of Ca2+ elevation (primary CLL cells [1]; 2 μM ABT-737, FIG. 11A): did not induce Ca^2+ elevation
death of CLL cells (primary CLL cells [2]; 2 μM, 24 hr, trypan blue dye uptake, FIG. 11B): 40%

interaction with Bcl-2 (Bcl-2): documented
disruption of Bcl-2-IP3R interaction (Bcl-2-IP3R interaction): confirmed
Compound: NVYTEIKCNSLLPLAAIVRV (listed as Homo sapiens) [IDPDD/AA, IDP with DD/AA substitution, without TAT]
effect on Bcl-2-imposed inhibition of IP3-induced 45Ca2+ efflux from the ER [5]: reversed
